Our source for the IC50 values is patent publication US20230078764A1 (Yumanity Therapeutics, Inc., priority 2019, published 2023).

Where only a bound is given, the exact number is not on record here.

One test concerns the target T1, human SCD1 (Homo sapiens, UniProt O00767).
T1 construct: expressed in transfected cells; host or cells: yeast strain with OLE1 deleted, plasmid-borne human SCD1 (selected in SD-Ura)
T1 sequence (O00767 1-359): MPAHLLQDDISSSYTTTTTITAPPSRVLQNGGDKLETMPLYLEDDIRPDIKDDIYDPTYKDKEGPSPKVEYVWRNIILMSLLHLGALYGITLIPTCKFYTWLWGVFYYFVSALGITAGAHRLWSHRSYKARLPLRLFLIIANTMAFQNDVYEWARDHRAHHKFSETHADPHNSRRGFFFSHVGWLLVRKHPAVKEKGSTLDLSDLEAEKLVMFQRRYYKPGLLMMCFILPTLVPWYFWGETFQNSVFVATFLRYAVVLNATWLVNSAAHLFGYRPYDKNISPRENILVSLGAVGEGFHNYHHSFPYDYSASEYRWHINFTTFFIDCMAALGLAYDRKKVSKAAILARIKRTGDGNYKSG
In words: Growth inhibition of yeast strain expressing human SCD1 as sole desaturase (OLE1 deleted), OD600 readout. The test is classed as cell-based. To be noted: yeast strain expressing human SCD1 as sole desaturase; growth (OD600) after 40 h at 30° C.; read-out: SCD1 IC50.

A further test has as its target T2, human SCD5 (Homo sapiens, UniProt Q86SK9).
T2 construct: expressed in transfected cells; host or cells: yeast strain with OLE1 deleted, plasmid-borne human SCD5 (selected in SD-Ura)
T2 sequence (Q86SK9 1-330): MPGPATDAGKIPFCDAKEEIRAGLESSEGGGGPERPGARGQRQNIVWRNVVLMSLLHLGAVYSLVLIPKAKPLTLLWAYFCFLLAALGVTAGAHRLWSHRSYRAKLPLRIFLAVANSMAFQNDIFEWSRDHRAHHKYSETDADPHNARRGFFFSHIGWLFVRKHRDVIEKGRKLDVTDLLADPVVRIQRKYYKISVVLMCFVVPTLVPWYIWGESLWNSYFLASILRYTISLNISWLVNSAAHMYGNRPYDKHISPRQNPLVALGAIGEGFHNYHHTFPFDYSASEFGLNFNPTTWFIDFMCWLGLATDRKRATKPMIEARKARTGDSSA
In words: Growth inhibition of yeast strain expressing human SCD5 as sole desaturase (OLE1 deleted), OD600 readout. The test is classed as cell-based. To be noted: yeast strain expressing human SCD5 as sole desaturase; growth (OD600) after 40 h at 30° C.; read-out: SCD5 IC50.

A word on the IC50: it is the concentration that inhibits the measured activity by half. For the molecule `CNC(=O)c1ccnc(C(=O)Nc2ccc(Cc3cccc(F)c3)cn2)c1` [Compound 578], the IC50 was > 45 µM at human SCD1 and 0.37 µM on human SCD5.

For `CN(c1ccc(NC(=O)c2ccc(=O)n(C)c2)nc1)c1cccc(F)c1` [Compound 302], the IC50 on human SCD1 is > 45 µM; at human SCD5 it was 3.34 µM.

Turning to `CN1N=C(C(=O)Nc2ccc(Oc3cccc(Cl)c3)cc2)CCC1=O` [Compound 159, N-(4-(3-chlorophenoxy)phenyl)-1-methyl-6-oxo-1,4,5,6-tetrahydropyridazine-3-carboxamide], the IC50 was > 45 µM at human SCD1 and 8.04 µM on human SCD5.

As to `CN1N=C(C(=O)Nc2ncc(Cc3cccc(C(F)(F)F)c3)s2)CCC1=O` [Compound 340], the IC50 at human SCD1 came out at 0.09 µM; at human SCD5 it was 0.12 µM.

Regarding `Cn1cc(C(=O)Nc2ccc(Cc3cccc(Cl)c3)cn2)ccc1=O` [Example 48, N-(5-(3-chlorobenzyl)pyridin-2-yl)-1-methyl-6-oxo-1,6-dihydropyridine-3-carboxamide], the IC50 at human SCD1 came to 0.15 µM; at human SCD5 it was 0.01 µM.

For `Cn1nc(C(=O)Nc2ccc(Cc3cc(F)cc(C#N)c3)cn2)ccc1=O` [Example 42, N-(5-(3-cyano-5-fluorobenzyl)pyridin-2-yl)-1-methyl-6-oxo-1,6-dihydropyridazine-3-carboxamide], the concentration for half-maximal inhibition (IC50) was determined as 2.41 µM on human SCD1 and 0.08 µM on human SCD5.

Consider `Cn1ccc(C(=O)Nc2ccc(Cc3cc(F)cc(F)c3)cn2)cc1=O` [Compound 533], for which the IC50 on human SCD1 came to 0.22 µM; at human SCD5 it was 0.01 µM.

On to `CC(O)c1ccc(C(=O)Nc2ccc(Cc3cccc(Cl)c3)cn2)nc1` (centres unmarked) [Compound 510], for which the results for the IC50 at human SCD1 and on human SCD5 were 0.1 µM and 0.077 µM, respectively.

As to `O=C(Nc1ccc(Cc2cccc(Cl)c2)cn1)c1ccc2nncn2c1` [Compound 146, N-(5-(3-chlorobenzyl)pyridin-2-yl)-[1,2,4]triazolo[4,3-a]pyridine-6-carboxamide], the IC50 at human SCD1 was determined as 0.19 µM; on human SCD5, 0.01 µM.

Consider `Cn1cc(NC(=O)c2ccc(COc3ccc(F)c(Cl)c3)cn2)ccc1=O` [Compound 488], for which the results for the IC50 at human SCD1 and on human SCD5 were 5.8 µM and 0.109 µM, respectively.

`O=C(Nc1ccc(Cc2cccc(F)c2)cn1)c1ccn(C(F)(F)F)n1` [Compound 372]: the IC50 on human SCD1 is > 45 µM; on human SCD5, 0.77 µM.

Regarding `CN1N=C(C(=O)Nc2ccc(COc3ccc(F)cc3F)cn2)CCC1=O` [Compound 607], the IC50 at human SCD1 was > 45 µM; at human SCD5 it was 0.58 µM.

As for `Cn1nc(C(=O)Nc2ccc(Cc3cncc(Cl)c3)cn2)ccc1=O` [Compound 275], the IC50 is > 45 µM on human SCD1 and 3.02 µM on human SCD5.

`CN(C)C(=O)c1ccc(NC(=O)c2ccc(Cc3cccc(Cl)c3)cn2)cc1` [Compound 284]: the IC50 on human SCD1 is > 45 µM; at human SCD5, 4.52 µM.

Consider `Cn1cc(NC(=O)c2ccc(Cc3cc(F)cc(F)c3)cn2)ccc1=O` [Compound 311], for which the figures for the IC50 at human SCD1 and at human SCD5 were 1.02 µM and 0.01 µM, respectively.

Consider `O=C(Nc1ccc(Cc2ccc(F)c(F)c2)cn1)c1ncc(Br)cn1` [Compound 518], for which the values for the IC50 on human SCD1 and on human SCD5 were > 45 µM and 1.7 µM, respectively.

In the case of `CC(C)n1cc(C(=O)Nc2ccc(Oc3cccc(Cl)c3)cn2)ccc1=O` [Compound 166, N-[5-(3-chlorophenoxy)pyridin-2-yl]-6-oxo-1-(propan-2-yl)-1,6-dihydropyridine-3-carboxamide], the values for the IC50 on human SCD1 and at human SCD5 were 14.7 µM and 9.36 µM, respectively.

As for `CCn1nc(C(=O)Nc2ccc(Cc3cccc(Cl)c3)nn2)ccc1=O` [Compound 185, N-(6-(3-chlorobenzyl)pyridazin-3-yl)-1-ethyl-6-oxo-1,6-dihydropyridazine-3-carboxamide], the IC50 at human SCD1 was > 45 µM; on human SCD5, 8.59 µM.

As for `O=C(Nc1ccc(Cc2cc(F)cc(F)c2)cn1)c1cnc(Cl)c(Cl)c1` [Compound 601], the IC50 on human SCD1 was > 45 µM; on human SCD5, 0.034 µM.

On to `Cc1cnc(C(=O)Nc2ccc(Cc3cccc(F)c3)cn2)cn1` [Compound 252], for which the IC50 stood at 0.69 µM at human SCD1 and 0.13 µM at human SCD5.

In the case of `Cn1cccc(C(=O)Nc2ccc(Cc3ccc(F)c(F)c3)cn2)c1=O` [Compound 328], the IC50 stood at 1.76 µM on human SCD1 and 0.01 µM at human SCD5.

For `N#Cc1ncc(C(=O)Nc2ccc(Cc3ccc(F)c(F)c3)cn2)cn1` [Compound 525], the IC50 is > 45 µM on human SCD1 and 0.55 µM on human SCD5.

With `N#Cc1cc(Cl)cc(Cc2ccc(NC(=O)c3ccnnc3)nc2)c1` [Compound 669], the half-inhibitory concentration (IC50) at human SCD1 worked out at 0.22 µM; on human SCD5 it was 0.073 µM.

For the molecule `CCCn1nc(C(=O)Nc2ccc(Cc3cccc(Cl)c3)nn2)ccc1=O` [Compound 257], the 50% inhibitory concentration (IC50) on human SCD1 is > 45 µM; on human SCD5, 4.36 µM.

In the case of `Cn1cc(C(=O)Nc2ccc(Cc3cccc(F)c3)cn2)cn1` [Compound 356], the results for the IC50 on human SCD1 and on human SCD5 were 0.12 µM and 0.04 µM, respectively.

As to `CN1N=C(C(=O)Nc2ccc(Cc3cccc(F)c3)cc2)CCC1=O` [Compound 1, N-(4-(3-fluorobenzyl)phenyl)-1-methyl-6-oxo-1,4,5,6-tetrahydropyridazine-3-carboxamide], the results for the IC50 at human SCD1 and at human SCD5 were > 45 µM and 5.16 µM, respectively.

Turning to `N#Cc1cnc(C(=O)Nc2ccc(Cc3ccc(F)c(F)c3)cn2)cn1` [Compound 591], the IC50 was found to be 2.2 µM at human SCD1 and 0.018 µM at human SCD5.

In the case of `N#Cc1ccc(C(=O)Nc2ccc(Cc3cccc(Cl)c3)cn2)cn1` [Compound 120, N-(5-(3-chlorobenzyl)pyridin-2-yl)-6-cyanonicotinamide], the IC50 at human SCD1 was > 45 µM; at human SCD5, 0.03 µM.

For `Cn1cc(C(=O)Nc2ccc(OCc3cc(F)cc(C#N)c3)cn2)ccc1=O` [Compound 427], the IC50 on human SCD1 and at human SCD5 was > 45 µM each time.

Consider `CN1N=C(C(=O)Nc2ccc(Cc3cccc(Cl)c3)cn2)CC1=O` [Compound 105, N-(5-(3-chlorobenzyl)pyridin-2-yl)-1-methyl-5-oxo-4,5-dihydro-1H-pyrazole-3-carboxamide], for which the figures for the IC50 on human SCD1 and on human SCD5 were > 45 µM and 0.83 µM, respectively.

For the molecule `CN1N=C(C(=O)Nc2ncc(Cc3cccc(C#N)c3)s2)CCC1=O` [Compound 209, N-(5-(3-cyanobenzyl)thiazol-2-yl)-1-methyl-6-oxo-1,4,5,6-tetrahydropyridazine-3-carboxamide], the IC50 at human SCD1 was found to be 1.69 µM; at human SCD5 it was 2.45 µM.

For `O=C(Nc1ccc(Cc2cccc(F)c2)cn1)c1cscn1` [Compound 633], the IC50 at human SCD1 worked out at 1.8 µM; at human SCD5, 0.27 µM.

Turning to `CN1N=C(C(=O)Nc2nc(Cl)c(Cc3cccc(F)c3)s2)CCC1=O` [Compound 218, N-(4-chloro-5-(3-fluorobenzyl)thiazol-2-yl)-1-methyl-6-oxo-1,4,5,6-tetrahydropyridazine-3-carboxamide], the results for the IC50 on human SCD1 and at human SCD5 were 2.73 µM and 0.36 µM, respectively.

`COc1cc(Cc2ccc(NC(=O)c3cnc(Cl)cn3)nc2)ccc1F` [Compound 634]: the IC50 at human SCD1 was > 45 µM; at human SCD5, 0.28 µM.

`N#Cc1cc(Cl)cc(Cc2ccc(NC(=O)c3cnc(C#N)cn3)nc2)c1` [Compound 677]: the IC50 is > 45 µM at human SCD1 and 0.079 µM on human SCD5.

With `CN1N=C(C(=O)Nc2ccc(Cc3cccc(C(F)(F)F)n3)cn2)CCC1=O` [Compound 445], the IC50 on human SCD1 and at human SCD5 was > 45 µM each time.

`CN1N=C(C(=O)Nc2ccc(Cc3cccs3)nn2)CCC1=O` [Compound 271]: the IC50 on human SCD1 is > 45 µM; on human SCD5, 14.8 µM.

`Cc1cc(C(=O)Nc2ccc(Cc3cccc(F)c3)cn2)c(=O)n(C)n1` [Compound 624]: the IC50 on human SCD1 is > 45 µM; on human SCD5, 0.054 µM.

On to `CN1N=C(C(=O)Nc2ncc(Cc3cc(F)cc(Cl)c3)s2)CCC1=O` [Compound 216, N-(5-(3-chloro-5-fluorobenzyl)thiazol-2-yl)-1-methyl-6-oxo-1,4,5,6-tetrahydropyridazine-3-carboxamide], for which the IC50 on human SCD1 turned out to be 0.01 µM; on human SCD5, 0.02 µM.

As for `COc1cccc(Cc2cnc(NC(=O)c3ccc(=O)n(C)n3)s2)c1` [Compound 212, N-(5-(3-methoxybenzyl)thiazol-2-yl)-1-methyl-6-oxo-1,6-dihydropyridazine-3-carboxamide], the concentration for half-maximal inhibition (IC50) at human SCD1 worked out at 0.15 µM; at human SCD5 it was 0.04 µM.

Consider `CN1N=C(C(=O)Nc2ccc(C=C3CCCCC3)cn2)CCC1=O` [Compound 477], for which the values for the IC50 on human SCD1 and on human SCD5 were > 45 µM and 18 µM, respectively.

On to `C#CCn1nc(C(=O)Nc2ccc(Cc3cccc(Cl)c3)cn2)ccc1=O` [Compound 501], for which the IC50 at human SCD1 and at human SCD5 was 0.01 µM throughout.

As for `Cn1cc(C(=O)Nc2ccc(Cc3ccc(F)c(F)c3)cn2)cn1` [Compound 314], the IC50 on human SCD1 worked out at 0.1 µM; at human SCD5 it was 0.02 µM.
